Measured values published in patent US5186941A (priority 1991, dated 1993).

What was measured:
[1] = rat, in vivo
[2] = rat, in vivo; remark: listed apart in the source

Structure (SMILES): C[n+]1ccccc1/C=N/O [2-PAMCl, 2-pralidoxime chloride]
- duration of therapeutic plasma drug level (4.0 μg/ml plasma) [1]: 21/4
- time until blood concentration drops below therapeutic level (TL) [1]: 2 to 3 h
- death of all animals, time after injection [2]: ≤ 30 min
